Data reported in patent publication US20240368181A1, “QUINOXALINE DERIVATIVES AND USES THEREOF” (Black Diamond Therapeutics, Inc., priority 2021, published 2024).

Experiments:
Assay type in all cases: cell-based
[1] = tested on: SNU-16 (FGFR2-amplification) cells; experiment: cell proliferation assay (CellTiterGlo), SNU-16 cells; details: Homo sapiens, 72 hours
Source text: (§1) In some embodiments, the biological assay assess the ability of the compounds to inhibit cell proliferation.
(§2) In some embodiments, cells (e.g., SNU-16 (FGFR2-amplification) cells) may be suspended and dispensed in plates. In some embodiments, cells (e.g., UM-UC-14 (FGFR3-S249C) cells) may be suspended and dispensed in plates. In some embodiments, cells (e.g., DMS-114 (FGFR1 overexpression) cells) may by suspended and dispensed in plates. In some embodiments, cells (e.g., RT-112 (FGFR3-Tacc3 fusion) cells) may be suspended and dispensed in plates. In some embodiments, to determine the effect of the compounds of the present disclosure on cell proliferation, cells (e.g., SNU-16, UM-UC-14, DMS-114 and […] cells) may be incubated in the presence of vehicle control (e.g., DMSO) or a compound of the present disclosure at varying concentrations and the inhibition of cell growth may be determined by luminescent quantification (e.g., of intracellular ATP content using CellTiterGlo), according to the manufacturers protocol. In some embodiments, to determine the IC50 values, the vehicle-treated cells were normalized as viable cells and the growth was analyzed using a software (e.g., the CDD Vault software (Collaborative Drug Discovery, Burlingame, CA)).

[2] = tested on: UM-UC-14 (FGFR3-S249C) cells; experiment: cell proliferation assay (CellTiterGlo), UM-UC-14 cells; details: UMUC14, 72 h
Source text: as §1, §2

[3] = tested on: DMS-114 (FGFR1 overexpression) cells; experiment: cell proliferation assay (CellTiterGlo), DMS-114 cells; details: Homo sapiens, DMS-114, 72 h
Source text: as §1, §2

[4] = tested on: RT-112 (FGFR3-Tacc3 fusion) cells; experiment: cell proliferation assay (CellTiterGlo), RT-112 cells; details: Homo sapiens, RT-112, RT112 cells, 72 hours
Source text: as §1, §2

| Structure (SMILES) | IC50 [1] | IC50 [2] | IC50 [3] | IC50 [4] |
| --- | --- | --- | --- | --- |
| Cc1nc2ccc(Oc3ccc4ncc(-c5cnn(CC6CC(F)(F)C6)c5)nc4c3-n3ccnc3)cc2[nH]1 [Compound 69] | 100 to 400 nM | 100 to 400 nM | ≥ 400 nM | 100 to 400 nM |
| Cc1nc2ccc(Oc3ccc4ncc(-c5cnn(CC6(O)CC6)c5)nc4c3C3=CC(C)(C)OC3)c(F)c2[nH]1 [Compound 73] | < 20 nM | < 20 nM | 20 to 100 nM | < 20 nM |
| Cc1nc2ccc(Oc3ccc4ncc(-c5cnn(CC6(O)CC6)c5)nc4c3N3CCOC3=O)c(F)c2[nH]1 [Compound 74] | ≥ 400 nM | ≥ 400 nM | ≥ 400 nM | ≥ 400 nM |
| Cc1nc2ccc(Oc3ccc4ncc(-c5cnn(CC6(O)CC6)c5)nc4c3N3CCOCC3)cc2[nH]1 [Compound 75] | 20 to 100 nM | 100 to 400 nM | ≥ 400 nM | 100 to 400 nM |
| Cc1nc2ccc(Oc3ccc4ncc(-c5cnn(CC6CC(F)(F)C6)c5)nc4c3C3=CC(C)(C)OC3)cc2[nH]1 [Compound 76] | < 20 nM | < 20 nM | 100 to 400 nM | < 20 nM |
| Cc1nc2ccc(Oc3ccc4ncc(-c5cnn(CC6(O)CC6)c5)nc4c3C3=CCOC3)c(F)c2[nH]1 [Compound 77] | < 20 nM | 20 to 100 nM | 20 to 100 nM | < 20 nM |
| CC(=O)N1CC=C(c2c(Oc3ccc4nc(C)[nH]c4c3)ccc3ncc(-c4cnn(CC5CC(F)(F)C5)c4)nc23)C1 [Compound 78] | 100 to 400 nM | 100 to 400 nM | ≥ 400 nM | 100 to 400 nM |
| CN=S1(=O)CCC(n2cc(-c3cnc4ccc(Oc5ccc6nc(C)[nH]c6c5)c(Cl)c4n3)cn2)CC1 (centres unmarked) [Compound 80] | 20 to 100 nM | 20 to 100 nM | ≥ 400 nM | 20 to 100 nM |
| Cc1nc2ccc(Oc3ccc4ncc(-c5cnn(CC6CC(F)(F)C6)c5)nc4c3-c3ccoc3)c(F)c2[nH]1 [Compound 81] | < 20 nM | < 20 nM | 100 to 400 nM | < 20 nM |
| Cc1nc2ccc(Oc3ccc4ncc(-c5cnn(C6CCN(S(C)(=N)=O)CC6)c5)nc4c3Cl)cc2[nH]1 (centres unmarked) [Compound 82] | < 20 nM | 20 to 100 nM | 100 to 400 nM | 20 to 100 nM |
| Cc1nc2ccc(Oc3ccc4ncc(-c5cnn(CC6CC(F)(F)C6)c5)nc4c3C3=CCNC3)cc2[nH]1 [Compound 83] | 100 to 400 nM | 20 to 100 nM | ≥ 400 nM | 100 to 400 nM |
| Cc1nc2ccc(Oc3ccc4ncc(-c5cnn(CC6CC(F)(F)C6)c5)nc4c3C3=CCN(C(=O)OC(C)(C)C)C3)cc2[nH]1 [Compound 84] | 100 to 400 nM | ≥ 400 nM | ≥ 400 nM | 100 to 400 nM |
| Cc1nc2ccc(Oc3ccc4ncc(-c5cnn(C6CCS(=N)(=O)CC6)c5)nc4c3Cl)cc2[nH]1 (centres unmarked) [Compound 85] | 20 to 100 nM | 100 to 400 nM | ≥ 400 nM | 20 to 100 nM |
| CN=S(C)(=O)N1CCC(n2cc(-c3cnc4ccc(Oc5ccc6nc(C)[nH]c6c5)c(Cl)c4n3)cn2)CC1 (centres unmarked) [Compound 86] | < 20 nM | < 20 nM | 100 to 400 nM | < 20 nM |
| Cc1nc2ccc(Oc3ccc4ncc(-c5cnn(CC6CC(F)(F)C6)c5)nc4c3C3CCCOC3)cc2[nH]1 (centres unmarked) [Compound 87] | ≥ 400 nM | ≥ 400 nM | ≥ 400 nM | ≥ 400 nM |
| Cc1nc2ccc(Oc3ccc4ncc(-c5cnn(CC6CC(F)(F)C6)c5)nc4c3C3=CC(C)(C)OC3(C)C)c(F)c2[nH]1 [Compound 88] | 20 to 100 nM | 20 to 100 nM | 100 to 400 nM | 20 to 100 nM |
| Cc1nc2ccc(Oc3ccc4ncc(-c5cnn(CC6CC(F)(F)C6)c5)nc4c3C3=CCOC3)c(F)c2[nH]1 [Compound 89] | < 20 nM | 20 to 100 nM | 100 to 400 nM | 20 to 100 nM |
| Cc1nc2ccc(Oc3ccc4ncc(-c5cnn(CC6CC(F)(F)C6)c5)nc4c3C3=CC(C)(C)OC3(C)C)cc2[nH]1 [Compound 90] | 20 to 100 nM | 20 to 100 nM | 100 to 400 nM | 20 to 100 nM |
| Cc1nc2ccc(Oc3ccc4ncc(-c5cnn(CC6CC(F)(F)C6)c5)nc4c3C3=CCCOC3)cc2[nH]1 [Compound 91] | 20 to 100 nM | 20 to 100 nM | ≥ 400 nM | 20 to 100 nM |
| Cc1nc2ccc(Oc3ccc4ncc(-c5cnn(CCC(F)F)c5)nc4c3Cl)cc2[nH]1 [Compound 92] | 100 to 400 nM | 100 to 400 nM | ≥ 400 nM | 100 to 400 nM |
